{
  "source": "patent US12122811B2",
  "about": "“BDNF mimetic peptide amphiphiles” (Northwestern University, priority 2018, dated 2024)",
  "key": {"[1]": {"system": "primary mouse cortical neurons", "experiment": "Morphometric analysis of neurites (MAP2, SMI312 immunocytochemistry)", "assay_type": "cell-based", "conditions": "24 h", "protocol": "For morphometric analysis and cell viability assays, cells were cultured in 24 or 48 well plates at a density of 25,000 or 40,000 cells/well respectively, for three days before being treated. Cells were then treated for 24 hours, 3 days or 7 DIV. Samples were fixed in 4% PFA for 15 min (20 min for gels) at room temperature (RT) for immunofluorescence studies.\nImmunofluorescence. For immunofluorescence, fixed samples (4% PFA for 15 min at RT) were incubated with primary antibodies overnight and Alexa 488 or Alexa 555 secondary antibodies (1:2000, Invitrogen) were used for 2 h at room temperature. The following primary antibodies were used: mouse anti-Tuj-1 (neuronal marker 1:4000, BioLegend), rabbit anti-Tuj-1 (neuronal marker, 1:4000, BioLegend) rabbit anti-MAP2 (marker for mature neurons 1:2000, BioLegend), mouse anti-SMI312 (axonal filament marker 1:1000, BioLegend), rabbit anti-Synaptophysin (marker for synaptic vesicles, 1:1000, Abcam) and DAPI (nuclear stain, 1:2000, Invitrogen). If not already in a glass bottom plate (MatTek), the preparations were mounted with Immu-Mount (Thermo Scientific) for imaging.\nImaging and Morphometric Analysis. Throughout the experiments, a digital camera (Nikon) mounted on a tissue culture microscope was used to take bright field images of cells. Nikon A1R confocal laser-scanning microscope with GaAsP detectors was used to visualize and image fluorescent preparations. Images were processed using an ImageJ (National Institutes of Health) plugin. Confocal images were reconstructed by NIS Elements Advanced Research Microscope Imaging software (version 4.20) or Imaris program (version 8.1, Bitplane Scientific software) for 3D interactive data viewing with normal or shadow projections of cells screened under Nikon A1R confocal laser-scanning microscope with GaAsP detectors.\nFor morphometric analysis, NeuronJ was used to trace and measure neuronal extensions.^4 For quantification of number of primary neurites and neurite length, a minimum of 60 randomly selected cells were analyzed with a minimum of 2 independent batches of culture for each condition. The images were arranged in Adobe Photoshop (v.7.0), with adjustments for contrast, brightness and color balance to obtain optimal visual reproduction of data."}, "[2]": {"system": "cortical neurons", "experiment": "Whole-cell current-clamp (patch clamp) recordings of neurons on PA gels", "assay_type": "cell-based, mouse", "conditions": "neurons on gels up to one week; relative to E2 Filler PA", "protocol": "Patch Clamp. Whole-cell current-clamp recordings were made from visually identified primary cultured neurons using inverted Olympus IX51 microscope equipped with a 40× objective. Recording pipettes were made of glass capillaries using a horizontal Sutter P-1000 puller yielding a 3-5 MΩ resistance pipette when filled with standard intracellular solution containing (in mM): 120 K-MeSO4, 10 KCl, 10 HEPES, 10 Na2-phosphocreatine, 4 Mg-ATP, 0.4 Na3-GTP, pH 7.3; 285-290 mOsm. Gels with neurons were continuously perfused with standard oxygenated aCSF bath solution (in mM): 125 NaCl, 26 NaHCO3, 2.5 KCl, 1.25 NaH2PO4, 1 MgSO4, 25 glucose, 2 CaCl2, pH 7.4 at 32-34° C. Whole-cell current-clamp data was acquired using an […] amplifier (Molecular Devices, USA) and digitized at 10 kHz (filtered at 3 kHz) with the neurons held at −65 mV. Resting membrane potential was measured immediately after breaking into the cell. Input resistance was calculated as the slope of the voltage-current curve using 500 ms current steps from −50 pA to 30 pA at 10 pA steps. There were no differences in resting membrane potentials or input resistance between the three groups. […] AP threshold was calculated where the first derivative of the up phase of the trace equals 5 mV/ms. […] Data was analyzed using MATLAB protocols designed specifically for these experiments."}, "[3]": {"experiment": "Dynamic light scattering (DLS)", "assay_type": "physicochemical", "conditions": "BDNF PA at 100 mol %", "protocol": "2.2.2. Dynamic Light Scattering (DLS). Measurements were performed on a Malvern Zetasizer Nano ZSP light scattering spectrometer. Samples were prepared as previously described. During the sample measurement, the temperature was kept at 25° C. The sample was equilibrated for 30 seconds before each measurement was taken. The duration of each measurement was 10 seconds and the measurement angle was 173° backscatter. The attenuator was determined by the instrument automatically, as was the number of accumulations for each run. Each measurement run was repeated 3 times."}},
  "note": "Positions of bridges follow the written chain, without caps; N, C: chain ends. Non-standard residues stand in square brackets, D forms with d. Residues, ends and D or L forms follow the SMILES beside them. Chains are numbered I, II in the order given. *: point of attachment. PEG6 = NCCOCCOCCOCCOCCOCCOCCC(=O)O; Palmitoyl = CCCCCCCCCCCCCCCC(=O)*",
  "data": [
    {"smiles": "CCCCCCCCCCCCCCCC(=O)N[C@H](C(=O)N[C@H](C(=O)N[C@@H](C)C(=O)N[C@@H](C)C(=O)N[C@@H](CCC(=O)O)C(=O)N[C@@H](CCC(=O)O)C(=O)N[C@@H](CCC(=O)O)C(=O)N[C@@H](CCC(=O)O)C(=O)NCCOCCOCCOCCOCCOCCOCCC(=O)NCCCC[C@@H]1NC(=O)[C@H]2CCCN2C(=O)[C@H](CCCNC(=N)N)NC(=O)[C@H](CCCCN)NC(=O)[C@H](CCCCN)NC1=O)C(C)C)C(C)C", "note": "[BDNF PA, RKK(aK)(dP)-(PEG6 Spacer)-EEEEAAVV-C16 (SEQ ID NO: 5)] (I: Palmitoyl-VVAAEEEE[PEG6] / II: cyclo(KKKR[dP]); amide I:C-II:1)", "values": [
      {"measurement": "neurite number, BDNF PA versus native BDNF protein", "setting": "[1]", "result": "no statistical differences"},
      {"measurement": "number of primary neurites", "setting": "[1]; vs control conditions", "result": "positive tendency"},
      {"measurement": "number of secondary neurites", "setting": "[1]; vs control conditions", "result": "significant increase"},
      {"measurement": "total dendrite and axon length", "setting": "[1]; vs native BDNF protein and control conditions", "result": "significant increase"},
      {"measurement": "number of action potentials", "setting": "[2]", "result": "higher number of action potentials"},
      {"measurement": "micelle diameter (DLS)", "setting": "[3]", "result": "~12", "unit": "nm"}
    ]}
  ]
}
